Test results published in the CheMixHub ionic liquid set.

Assay: xn = mol fraction of the nth substance listed

CCCC[N+]1(C)CCCCC1.N#C[S-] + O
101 kPa
Details	viscosity [mPa·s]
318.15 K, x2 = 0.3741	57.3
328.15 K, x2 = 0.2774	59.4
328.15 K, x2 = 0.3741	37.2
328.15 K, x2 = 0.6302	13.48
338.15 K, x2 = 0.2774	39.6
348.15 K, x2 = 0.5111	11.92

CCOCn1cc[n+](C)c1.O=S(=O)([N-]S(=O)(=O)C(F)(F)F)C(F)(F)F + O
Details	viscosity [mPa·s]
333 K, 101 kPa, x1 = 0.8415	11.7

OC[C@H]1O[C@@](CO)(O[C@H]2O[C@H](CO)[C@@H](O)[C@H](O)[C@H]2O)[C@@H](O)[C@@H]1O + O + CCCCCC[n+]1ccn(C)c1.[Br-]
viscosity [mPa·s], 100 kPa
Details	x1 = 0.001819, x3 = 0	x1 = 0.002681, x3 = 0	x1 = 0.003595, x3 = 0	x1 = 0.004483, x3 = 0	x1 = 0.006262, x3 = 0	x1 = 0.007151, x3 = 0	x1 = 0.008891, x3 = 0
288.15 K	1.252	1.306	1.362	1.414	1.517	1.571	1.678
298.15 K	0.98	1.021	1.065	1.104	1.182	1.222	1.295
308.15 K	0.789	0.822	0.855	0.886	0.949	0.978	1.035
318.15 K	0.657	0.683	0.709	0.733	0.783	0.805	0.86

Cc1ncc(C[n+]2csc(CCO)c2C)c(N)n1.Cl.[Cl-] + O + CCCC[N+](CCCC)(CCCC)CCCC.O=S(=O)([O-])O
viscosity [mPa·s], 101 kPa
Details	x1 = 0.0003639, x3 = 0	x1 = 0.0006573, x3 = 0	x1 = 0.0009524, x3 = 0	x1 = 0.001251, x3 = 0	x1 = 0.001553, x3 = 0	x1 = 0.001856, x3 = 0
298.15 K	0.9024	0.914	0.9244	0.9372	0.9488	0.959
308.15 K	0.7301	0.7393	0.7485	0.7576	0.768	0.7772
318.15 K	0.6037	0.6116	0.6196	0.6275	0.6343	0.6413

O=C1O[C@H]([C@@H](O)CO)C(O)=C1O + O + CCCC[N+](CCCC)(CCCC)CCCC.O=S(=O)([O-])O
viscosity [mPa·s], 101 kPa
Details	x1 = 0.0003639, x3 = 0	x1 = 0.0006573, x3 = 0	x1 = 0.0009524, x3 = 0	x1 = 0.001251, x3 = 0	x1 = 0.001553, x3 = 0	x1 = 0.001856, x3 = 0
298.15 K	0.899	0.904	0.91	0.916	0.922	0.927
308.15 K	0.724	0.728	0.732	0.738	0.743	0.748
318.15 K	0.6	0.604	0.608	0.612	0.616	0.621

NC(N)=O + O + CCCC[n+]1ccn(C)c1.F[B-](F)(F)F
298.15 K, 100 kPa
Details	viscosity [mPa·s]
x1 = 0.008492, x2 = 0.9402	1.98
x1 = 0.01695, x2 = 0.9318	2.01
x1 = 0.02496, x2 = 0.9237	2.06
x1 = 0.03322, x2 = 0.9155	2.05
x1 = 0.0408, x2 = 0.9079	2.15

CC(=O)[O-].[Na+] + O + CCCC[n+]1ccn(C)c1.N#C[S-]
Details	viscosity [mPa·s]
323.15 K, 101 kPa, x1 = 0.08925, x2 = 0.9088	2.515

CCCCCCCCCCCCCCCC[N+](C)(C)C.[Br-] + O + CO
electrical conductivity [S/m], 101 kPa
Details	293 K	298 K	303 K	308 K	313 K
x1 = 1.91e-06, x2 = 0.92	0.0025	0.0026	0.0022	0.0037	0.003
x1 = 5.74e-06, x2 = 0.92	0.0046	0.0047	0.0044	0.0063	0.0059
x1 = 9.57e-06, x2 = 0.92	0.0065	0.0067	0.0069	–	0.0088
x1 = 1.148e-05, x2 = 0.92	0.0077	0.0079	0.0083	0.0107	0.0106
x1 = 1.34e-05, x2 = 0.92	0.0087	0.009	0.0096	0.0122	0.0122
x1 = 1.531e-05, x2 = 0.92	0.0099	0.0102	0.0109	–	0.014
x1 = 1.723e-05, x2 = 0.92	0.0111	0.0114	0.0123	0.0157	0.016
x1 = 1.914e-05, x2 = 0.92	0.0121	0.0125	0.0138	0.0174	0.018
x1 = 2.871e-05, x2 = 0.92	0.0168	0.018	0.0199	0.0248	0.0261
x1 = 3.828e-05, x2 = 0.92	0.0215	0.0236	0.0263	0.0325	0.0352
x1 = 5.742e-05, x2 = 0.9199	0.0306	0.0338	0.0381	0.0467	0.0521
x1 = 7.656e-05, x2 = 0.9199	0.0391	0.0441	0.0502	0.0608	0.0687
x1 = 9.57e-05, x2 = 0.9199	0.0439	0.0508	0.0579	0.0702	–
x1 = 0.0001148, x2 = 0.9199	0.0472	0.0552	0.0632	0.0758	–
x1 = 0.000134, x2 = 0.9199	0.05	0.0585	0.0675	0.0806	–
x1 = 0.0001531, x2 = 0.9199	0.0527	0.0618	0.0719	0.0858	–
x1 = 0.0001722, x2 = 0.9198	0.0554	0.0652	0.0758	0.0904	–
x1 = 0.0001914, x2 = 0.9198	0.0582	0.0684	0.0801	0.0955	–
x1 = 0.0002105, x2 = 0.9198	0.0607	0.0715	0.0839	0.101	–
x1 = 0.0002296, x2 = 0.9198	0.0631	0.0747	0.0879	0.105	–
x1 = 0.0002488, x2 = 0.9198	0.0661	0.078	0.0917	0.11	–
x1 = 0.0002679, x2 = 0.9198	0.0688	0.0811	0.0958	0.115	–

CCCCCCCCCCCCCCCC[N+](C)(C)C.[Br-] + O=C(CO)[C@@H](O)[C@H](O)[C@@H](O)CO + O
viscosity [mPa·s], 100 kPa
Details	298.15 K	308.15 K	318.15 K
x1 = 7.21e-06, x2 = 0	0.896	0.742	0.617
x1 = 1.442e-05, x2 = 0	0.898	0.744	0.617
x1 = 2.162e-05, x2 = 0	0.9	0.745	0.617

CCCC[P+](CCCC)(CCCC)CCCC.[O-]c1cccnc1 + O=C=O
Details	viscosity [mPa·s]
293 K, 101 kPa, x2 = 0.5098	90000

CCCCCCCCCCCCCCCC[N+](C)(C)C.[Br-] + O=C[C@H](O)[C@@H](O)[C@H](O)[C@H](O)CO + O
viscosity [mPa·s], 100 kPa
Details	298.15 K	308.15 K	318.15 K
x2 = 0, x1 = 7.21e-06	0.896	0.742	0.617
x2 = 0, x1 = 1.442e-05	0.898	0.744	0.617
x2 = 0, x1 = 2.162e-05	0.9	0.745	0.617
x2 = 0.0008068, x1 = 7.2e-06	0.918	0.76	–
x2 = 0.000976, x1 = 1.44e-05	0.926	–	0.635
x2 = 0.0009851, x1 = 2.16e-05	–	0.768	0.636
x2 = 0.00106, x1 = 7.2e-06	–	–	0.636
x2 = 0.001255, x1 = 2.16e-05	–	0.774	0.641
x2 = 0.001314, x1 = 1.44e-05	–	0.774	–
x2 = 0.001569, x1 = 7.2e-06	0.939	0.777	0.645
x2 = 0.001577, x1 = 2.159e-05	0.946	0.782	0.647
x2 = 0.001582, x1 = 1.439e-05	0.943	–	0.647
x2 = 0.001962, x1 = 7.19e-06	0.949	–	–
x2 = 0.001965, x1 = 2.158e-05	0.957	0.791	0.655
x2 = 0.00197, x1 = 1.439e-05	0.955	–	0.654
x2 = 0.002321, x1 = 7.19e-06	–	0.793	0.659
x2 = 0.00235, x1 = 1.438e-05	–	0.798	–
x2 = 0.002365, x1 = 2.157e-05	0.968	0.8	0.662
x2 = 0.002661, x1 = 1.438e-05	0.974	0.805	0.667
x2 = 0.002693, x1 = 2.157e-05	0.978	0.808	0.669
x2 = 0.0027, x1 = 7.19e-06	0.969	0.802	–
